# Patent US20150057154A1, “HERBICIDAL COMPOSITIONS COMPRISING SULFENTRAZONE plus PROPYZAMIDE AND SULFENTRAZONE PLUS PROPYZAMIDE PLUS ETHALFLURALIN” (Dow AgroSciences LLC, priority 2013, published 2015)
# Columns and labels:
# Type in all cases: in vivo
# [1] = tested on: Kochia scoparia (kochia, KCHSC); test: Field trial, percent visual weed control of kochia
# Procedure: (§1) These trials were conducted under field conditions in western Canada. The trials were designed as split-block, factorial designs with timing (spring vs. fall), Authority 480 (sulfentrazone) rate (0, 52 or 105 g ai/ha), Kerb™ SC (propyzamide) rate (0, 450 or 900 g ai/ha) as the main factors and Edge™ Granular (ethalfluralin) application (0 or 1100 g ai/ha) as the split-block factor. Edge™ was applied to test plots at a rate of 1100 g ai/ha using a granular applicator in the fall of 2011 (17 October to 9 November). Authority 480 and Kerb™ SC treatments were applied to test plots either in the fall prior to or after Edge™ application (17 October to 3 November), or in the spring of 2012 (24 April to 5 May). An untreated control was also included in each trial. Following herbicide treatment application in the spring of 2012, lentils were seeded or field peas were seeded into plots. Weed efficacy assessments were taken at 9-15 days after the spring application (DAA2) for an initial evaluation, 33 DAA2 for an early evaluation, 48-52 DAA2 for a mid evaluation, and 77-85 DAA2 for a late evaluation. The trial sites had naturally occurring populations of weeds. The weed spectrum included, but was not limited to, Avena fatua (wild oats, AVEFA), Hordeum jubatum (foxtail barley, HORJU), Kochia scoparia (kochia, KCHSC) and Sinapis arvensis L. (wild mustard, SINAR).
# (§2) The treated plots and control plots were rated blind at various intervals after application. Ratings were based of Percent (%) Visual weed control, where 0 corresponds to no injury and 100 corresponds to complete kill.
# (§3) Colby's equation was used to determine the herbicidal effects expected from the mixtures (Colby, S. R. Calculation of the synergistic and antagonistic response of herbicide combinations. Weeds 1967, 15, 20-22).
# (§4) The following equation was used to calculate the expected activity of mixtures containing two active ingredients, A and B:
# (§5) Expected=A+B−(A×B/100) • A=observed efficacy of active ingredient A at the same concentration as used in the mixture; • B=observed efficacy of active ingredient B at the same concentration as used in the mixture.
# (§6) For mixtures containing three herbicidal active ingredients, the following equation can be used to calculate the expected activity:
# (§7) [formula] • A=observed efficacy of a first active ingredient at the same concentration as used in the mixture; • B=observed efficacy of a second active ingredient B at the same concentration as used in the mixture; • C=observed efficacy of a third active ingredient C at the same concentration as used in the mixture.
# [2] = tested on: Sinapis arvensis L. (wild mustard, SINAR); test: Field trial, percent visual weed control of wild mustard
# Procedure: as §1, §2, §3, §4, §5, §6, §7
# [3] = tested on: Avena fatua (wild oats, AVEFA); test: Field trial, percent visual weed control of wild oats
# Procedure: as §1, §2, §3, §4, §5, §6, §7
# [4] = tested on: Hordeum jubatum (foxtail barley, HORJU); test: Field trial, percent visual weed control of foxtail barley
# Procedure: as §1, §2, §3, §4, §5, §6, §7
# [5] = Table 3 (Spring applications), ethalfluralin 1100 g ai/ha (Edge Granular applied in the fall)
# [6] = Table 4, Fall application, ethalfluralin 1100 g ai/ha
# [7] = Table 1, Fall application, propyzamide 450 g ai/ha
# [8] = Table 1, Fall application, propyzamide 900 g ai/ha
# [9] = Table 2, Spring application, propyzamide 450 g ai/ha
# [10] = Table 2, Spring application, propyzamide 900 g ai/ha
# [11] = Table 3, Spring application, propyzamide 450 g ai/ha
# [12] = Table 1, Fall application, sulfentrazone 52 g ai/ha
# [13] = Table 1, Fall application, sulfentrazone 105 g ai/ha
# [14] = Table 2, Spring application, sulfentrazone 52 g ai/ha
# [15] = Table 3, Spring application, sulfentrazone 52 g ai/ha
# [16] = Table 4, Fall application, sulfentrazone 52 g ai/ha
structure (smiles),measurement,setting,value
"C=C(C)CN(CC)c1c([N+](=O)[O-])cc(C(F)(F)F)cc1[N+](=O)[O-] [Ethalfluralin, N-ethyl-N-(2-methyl-2-propen-1-yl)-2,6-dinitro-4-(trifluoromethyl)benzenamine]",KCHSC Obs (Observed percent weed control),[1]; [5],55%
same,KCHSC Obs (Observed percent weed control),[1]; [6],55%
same,SINAR Obs (Observed percent weed control),[2]; [5],0%
same,SINAR Obs (Observed percent weed control),[2]; [6],0%
same,AVEFA Obs (Observed percent weed control),[3]; [5],49%
"C#CC(C)(C)NC(=O)c1cc(Cl)cc(Cl)c1 [Propyzamide, 3,5-dichloro-N-(1,1-dimethyl-2-propyn-1-yl)benzamide]",HORJU Obs (Observed percent weed control),[4]; [7],18%
same,HORJU Obs (Observed percent weed control),[4]; [8],59%
same,HORJU Obs (Observed percent weed control),[4]; [9],30%
same,HORJU Obs (Observed percent weed control),[4]; [10],68%
same,KCHSC Obs (Observed percent weed control),[1]; [7],0%
same,KCHSC Obs (Observed percent weed control),[1]; [8],65%
same,KCHSC Obs (Observed percent weed control),[1]; [10],0%
same,KCHSC Obs (Observed percent weed control),[1]; [11],17%
same,KCHSC Obs (Observed percent weed control),"[1]; Table 4, Fall application, propyzamide 450 g ai/ha",0%
same,SINAR Obs (Observed percent weed control),[2]; [8],38%
same,SINAR Obs (Observed percent weed control),"[2]; Table 3, Spring application, propyzamide 900 g ai/ha",10%
same,SINAR Obs (Observed percent weed control),"[2]; Table 4, Fall application, propyzamide 900 g ai/ha",38%
same,AVEFA Obs (Observed percent weed control),[3]; [9],30%
same,AVEFA Obs (Observed percent weed control),[3]; [11],30%
"Cc1nn(-c2cc(NS(C)(=O)=O)c(Cl)cc2Cl)c(=O)n1C(F)F [Sulfentrazone, N-[2,4-dichloro-5-[4-(difluoromethyl)-4,5-dihydro-3-methyl-5-oxo-1H-1,2,4-triazol-1-yl]phenyl]methanesulfonamide]",HORJU Obs (Observed percent weed control),[4]; [12],15%
same,HORJU Obs (Observed percent weed control),[4]; [13],28%
same,HORJU Obs (Observed percent weed control),[4]; [14],15%
same,KCHSC Obs (Observed percent weed control),[1]; [12],30%
same,KCHSC Obs (Observed percent weed control),[1]; [13],40%
same,KCHSC Obs (Observed percent weed control),[1]; [14],20%
same,KCHSC Obs (Observed percent weed control),[1]; [15],20%
same,KCHSC Obs (Observed percent weed control),[1]; [16],30%
same,SINAR Obs (Observed percent weed control),[2]; [12],38%
same,SINAR Obs (Observed percent weed control),[2]; [15],53%
same,SINAR Obs (Observed percent weed control),[2]; [16],25%
same,AVEFA Obs (Observed percent weed control),[3]; [14],0%
same,AVEFA Obs (Observed percent weed control),"[3]; Table 2, Spring application, sulfentrazone 105 g ai/ha",15%
same,AVEFA Obs (Observed percent weed control),"[3]; Table 3, Spring application, sulfentrazone 105 g ai/ha",0%
